Molecular target: HEK293 cells with stable expression of the GRIN1 gene and tetracycline-inducible expression of the GRIN2B gene (NMDA receptor, NR2B) (Homo sapiens, UniProt Q13224)
Assay: Fluo-8 Ca2+ flux assay: reversal of Ro 25-6981-mediated suppression of the Ca2+ response to co-agonist (glutamate/glycine); also: test concentration or dose not given here
Assay type: cell-based
Conditions: reversal of the Ro 25-6981 suppression of the Ca2+ response to co-agonist (glutamate/glycine)

Sequence of HEK293 cells with stable expression of the GRIN1 gene and tetracycline-inducible expression of the GRIN2B gene (NMDA receptor, NR2B) (Q13224 27-1484, other chains not shown): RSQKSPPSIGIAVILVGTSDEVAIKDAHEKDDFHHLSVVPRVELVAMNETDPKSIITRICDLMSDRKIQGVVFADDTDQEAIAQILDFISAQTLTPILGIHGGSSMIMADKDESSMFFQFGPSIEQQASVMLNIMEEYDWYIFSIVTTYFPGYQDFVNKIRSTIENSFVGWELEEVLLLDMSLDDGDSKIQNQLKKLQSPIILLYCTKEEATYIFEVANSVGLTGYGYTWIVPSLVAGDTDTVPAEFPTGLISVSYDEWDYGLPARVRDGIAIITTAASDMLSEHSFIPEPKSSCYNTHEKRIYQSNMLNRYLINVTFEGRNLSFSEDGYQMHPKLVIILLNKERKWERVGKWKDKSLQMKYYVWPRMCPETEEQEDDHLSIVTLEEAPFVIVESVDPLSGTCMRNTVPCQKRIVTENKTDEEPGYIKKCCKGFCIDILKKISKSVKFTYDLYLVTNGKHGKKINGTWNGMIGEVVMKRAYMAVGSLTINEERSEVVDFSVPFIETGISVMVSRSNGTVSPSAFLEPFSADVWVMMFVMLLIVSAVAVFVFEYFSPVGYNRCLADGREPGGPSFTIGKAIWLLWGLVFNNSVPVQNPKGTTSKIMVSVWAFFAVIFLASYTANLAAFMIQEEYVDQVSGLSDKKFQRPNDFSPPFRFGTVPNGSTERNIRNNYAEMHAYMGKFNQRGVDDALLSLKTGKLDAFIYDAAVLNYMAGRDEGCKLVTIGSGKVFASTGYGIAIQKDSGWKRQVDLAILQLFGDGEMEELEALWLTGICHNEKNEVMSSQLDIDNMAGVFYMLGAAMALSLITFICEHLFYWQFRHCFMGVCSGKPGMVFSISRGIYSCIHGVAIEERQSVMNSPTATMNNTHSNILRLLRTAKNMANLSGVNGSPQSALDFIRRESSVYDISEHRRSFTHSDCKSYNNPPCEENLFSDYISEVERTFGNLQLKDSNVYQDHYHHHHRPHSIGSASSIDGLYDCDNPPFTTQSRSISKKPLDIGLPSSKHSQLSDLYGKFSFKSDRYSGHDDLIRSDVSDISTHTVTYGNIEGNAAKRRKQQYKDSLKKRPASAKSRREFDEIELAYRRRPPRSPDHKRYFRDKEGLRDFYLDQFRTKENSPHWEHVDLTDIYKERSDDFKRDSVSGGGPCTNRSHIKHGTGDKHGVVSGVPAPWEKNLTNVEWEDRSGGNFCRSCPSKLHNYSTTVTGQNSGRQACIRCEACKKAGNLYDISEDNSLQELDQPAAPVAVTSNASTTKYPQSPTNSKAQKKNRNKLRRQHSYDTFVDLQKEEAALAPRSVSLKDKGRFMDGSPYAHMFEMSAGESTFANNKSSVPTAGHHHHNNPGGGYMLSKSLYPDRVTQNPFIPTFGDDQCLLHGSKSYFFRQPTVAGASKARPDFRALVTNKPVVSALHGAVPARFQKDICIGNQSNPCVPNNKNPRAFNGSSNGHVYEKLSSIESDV

SMILES	Response Recovered (%)
CC(C)(O)Cn1cc(-c2ccc(F)c(C(F)(F)F)c2)c2c(=O)n(CC(=O)N3CC(F)C(F)C3)ccc21 (stereo not shown) [Example 258, 5-(2-(3,4-difluoropyrrolidin-1-yl)-2-oxoethyl)-3-(4-fluoro-3-(trifluoromethyl)phenyl)-1-(2-hydroxy-2-methylpropyl)-1H-pyrrolo[3,2-c]pyridin-4(5H)-one]	13
CC(C)(O)Cn1cc(-c2ccc(F)c(Cl)c2)c2c(=O)n(CC(=O)N3CCC(F)C3)ccc21 (stereo not shown) [Example 259, 3-(3-chloro-4-fluorophenyl)-5-(2-(3-fluoropyrrolidin-1-yl)-2-oxoethyl)-1-(2-hydroxy-2-methylpropyl)-1H-pyrrolo[3,2-c]pyridin-4(5H)-one]	35
O=C(Cn1ccc2c(c(-c3ccc(F)c(C(F)(F)F)c3)cn2CO)c1=O)N1CCC(F)C1 (stereo not shown) [Example 260, 3-(4-fluoro-3-(trifluoromethyl)phenyl)-5-(2-(3-fluoropyrrolidin-1-yl)-2-oxoethyl)-1-(hydroxymethyl)-1H-pyrrolo[3,2-c]pyridin-4(5H)-one]	68
O=C(Cn1ccc2c(c(-c3ccc(F)c(Cl)c3)cn2C2COC2)c1=O)N1CCC(F)C1 (stereo not shown) [Example 261, 3-(3-chloro-4-fluorophenyl)-5-(2-(3-fluoropyrrolidin-1-yl)-2-oxoethyl)-1-(oxetan-3-yl)-1H-pyrrolo[3,2-c]pyridin-4(5H)-one]	29
O=C(Cn1ccc2c(c(-c3ccc(F)c(C(F)(F)F)c3)cn2-c2ccnnc2)c1=O)N1CCC(F)C1 (stereo not shown) [Example 262, 3-(4-fluoro-3-(trifluoromethyl)-phenyl)-5-(2-(3-fluoropyrrolidin-1-yl)-2-oxoethyl)-1-(pyridazin-4-yl)-1H-pyrrolo[3,2-c]pyridin-4(5H)-one]	44
Cc1nnc(-n2cc(-c3ccc(F)c(C(F)(F)F)c3)c3c(=O)n(CC(=O)N4CCC(F)C4)ccc32)o1 (stereo not shown) [Example 263, 3-(4-fluoro-3-(trifluoromethyl)phenyl)-5-(2-(3-fluoropyrrolidin-1-yl)-2-oxoethyl)-1-(5-methyl-1,3,4-oxadiazol-2-yl)-1H-pyrrolo[3,2-c]pyridin-4(5H)-one]	72
Cc1nnc(-n2cc(-c3ccc(F)c(Cl)c3)c3c(=O)n(CC(=O)N4CCC(F)C4)ccc32)o1 (stereo not shown) [Example 264, 3-(3-chloro-4-fluorophenyl)-5-(2-(3-fluoropyrrolidin-1-yl)-2-oxoethyl)-1-(5-methyl-1,3,4-oxadiazol-2-yl)-1H-pyrrolo[3,2-c]pyridin-4(5H)-one]	49
O=C(Cn1ccc2c(c(-c3ccc(F)c(C(F)(F)F)c3)cn2C2COC2)c1=O)N1CCC(F)C1 (stereo not shown) [Example 265, 3-(4-fluoro-3-(trifluoromethyl)phenyl)-5-(2-(3-fluoropyrrolidin-1-yl)-2-oxoethyl)-1-(oxetan-3-yl)-1H-pyrrolo[3,2-c]pyridin-4(5H)-one]	61
Cn1cnc(-n2cc(-c3ccc(F)c(C(F)(F)F)c3)c3c(=O)n(CC(=O)N4CCC(F)C4)ccc32)n1 (stereo not shown) [Example 266, 3-(4-fluoro-3-(trifluoromethyl)phenyl)-5-(2-(3-fluoropyrrolidin-1-yl)-2-oxoethyl)-1-(1-methyl-1H-1,2,4-triazol-3-yl)-1H-pyrrolo[3,2-c]pyridin-4(5H)-one]	95
Cn1cc(-n2cc(-c3ccc(F)c(Cl)c3)c3c(=O)n(CC(=O)N4CCC(F)C4)ccc32)nn1 (stereo not shown) [Example 267, 3-(3-chloro-4-fluorophenyl)-5-(2-(3-fluoropyrrolidin-1-yl)-2-oxoethyl)-1-(1-methyl-1H-1,2,3-triazol-4-yl)-1H-pyrrolo[3,2-c]pyridin-4(5H)-one]	27
Cn1cnc(-n2cc(-c3ccc(F)c(C(F)(F)F)c3)c3c(=O)n(CC(=O)N4CC(C)(F)C4)ccc32)n1 [Example 268, 3-(4-fluoro-3-(trifluoromethyl)phenyl)-5-(2-(3-fluoro-3-methylazetidin-1-yl)-2-oxoethyl)-1-(1-methyl-1H-1,2,4-triazol-3-yl)-1H-pyrrolo[3,2-c]pyridin-4(5H)-one]	52
Cn1cnc(-n2cc(-c3ccc(F)c(Cl)c3)c3c(=O)n(CC(=O)N4CC(C)(F)C4)ccc32)n1 [Example 269, 3-(3-chloro-4-fluorophenyl)-5-(2-(3-fluoro-3-methylazetidin-1-yl)-2-oxoethyl)-1-(1-methyl-1H-1,2,4-triazol-3-yl)-1H-pyrrolo[3,2-c]pyridin-4(5H)-one]	130
Cn1cnc(-n2cc(-c3ccc(Cl)c(Cl)c3)c3c(=O)n(CC(=O)N4CC(C)(F)C4)ccc32)n1 [Example 270, 3-(3,4-dichlorophenyl)-5-(2-(3-fluoro-3-methylazetidin-1-yl)-2-oxoethyl)-1-(1-methyl-1H-1,2,4-triazol-3-yl)-1H-pyrrolo[3,2-c]pyridin-4(5H)-one]	130
Cn1cc(-n2cc(-c3ccc(F)c(Cl)c3)c3c(=O)n(CC(=O)N4CC(C)(F)C4)ccc32)nn1 [Example 271, 3-(3-chloro-4-fluorophenyl)-5-(2-(3-fluoro-3-methylazetidin-1-yl)-2-oxoethyl)-1-(1-methyl-1H-1,2,3-triazol-4-yl)-1H-pyrrolo[3,2-c]pyridin-4(5H)-one]	140
CCn1cc(-c2ccc(Cl)c(Cl)c2)c2c(=O)n(CC(=O)N3CCC(F)C3)ccc21 (stereo not shown) [Example 272, 3-(3,4-dichlorophenyl)-1-ethyl-5-(2-(3-fluoropyrrolidin-1-yl)-2-oxoethyl)-1H-pyrrolo[3,2-c]pyridin-4(5H)-one]	33
O=C(Cn1ccc2c(c(-c3ccc(Cl)c(Cl)c3)cn2CCF)c1=O)N1CCC(F)C1 (stereo not shown) [Example 273, 3-(3,4-dichlorophenyl)-1-(2-fluoroethyl)-5-[2-(3-fluoropyrrolidin-1-yl)-2-oxoethyl]-1H,4H,5H-pyrrolo[3,2-c]pyridin-4-one]	93
O=C(Cn1ccc2c(c(-c3ccc(Cl)c(Cl)c3)cn2CC(F)(F)F)c1=O)N1CCC(F)C1 (stereo not shown) [Example 275, 3-(3,4-dichlorophenyl)-5-(2-(3-fluoropyrrolidin-1-yl)-2-oxoethyl)-1-(2,2,2-trifluoroethyl)-1H-pyrrolo[3,2-c]pyridin-4(5H)-one]	100
O=C(Cn1ccc2c(c(-c3ccc(F)c(C(F)(F)F)c3)cn2CC(F)F)c1=O)N1CCC(F)C1 (stereo not shown) [Example 279, 1-(2,2-difluoroethyl)-3-(4-fluoro-3-(trifluoromethyl)phenyl)-5-(2-(3-fluoropyrrolidin-1-yl)-2-oxoethyl)-1H-pyrrolo[3,2-c]pyridin-4(5H)-one]	71
CC1(F)CN(C(=O)Cn2ccc3c(c(-c4ccc(F)c(Cl)c4)cn3CC(F)(F)F)c2=O)C1 [Example 280, 3-(3-chloro-4-fluorophenyl)-5-(2-(3-fluoro-3-methylazetidin-1-yl)-2-oxoethyl)-1-(2,2,2-trifluoroethyl)-1H-pyrrolo[3,2-c]pyridin-4(5H)-one]	73
CC1(F)CN(C(=O)Cn2ccc3c(c(-c4ccc(F)c(Cl)c4)cn3CCF)c2=O)C1 [Example 281, 3-(3-chloro-4-fluorophenyl)-5-(2-(3-fluoro-3-methylazetidin-1-yl)-2-oxoethyl)-1-(2-fluoroethyl)-1H-pyrrolo[3,2-c]pyridin-4(5H)-one]	150
CC1(F)CN(C(=O)Cn2ccc3c(c(-c4ccc(F)c(Cl)c4)cn3C3COC3)c2=O)C1 [Example 282, 3-(3-chloro-4-fluorophenyl)-5-(2-(3-fluoro-3-methylazetidin-1-yl)-2-oxoethyl)-1-(oxetan-3-yl)-1,5-dihydro-4H-pyrrolo[3,2-c]pyridin-4-one]	120
Cn1cc(-n2cc(-c3ccc(Cl)c(Cl)c3)c3c(=O)n(CC(=O)N4CCC(F)C4)ccc32)cn1 (stereo not shown) [Example 283, 3-(3,4-dichlorophenyl)-5-(2-(3-fluoropyrrolidin-1-yl)-2-oxoethyl)-1-(1-methyl-1H-pyrazol-4-yl)-1H-pyrrolo[3,2-c]pyridin-4(5H)-one]	82
Cn1cc(-n2cc(-c3ccc(Cl)c(Cl)c3)c3c(=O)n(CC(=O)N4CC(C)(F)C4)ccc32)cn1 [Example 284, 3-(3,4-dichlorophenyl)-5-(2-(3-fluoro-3-methylazetidin-1-yl)-2-oxoethyl)-1-(1-methyl-1H-pyrazol-4-yl)-1H-pyrrolo[3,2-c]pyridin-4(5H)-one]	5.2
CC1(F)CN(C(=O)Cn2ccc3c(c(-c4ccc(F)c(Cl)c4)cn3C3CC3)c2=O)C1 [Example 285, 3-(3-chloro-4-fluorophenyl)-1-cyclopropyl-5-(2-(3-fluoro-3-methylazetidin-1-yl)-2-oxoethyl)-1H-pyrrolo[3,2-c]pyridin-4(5H)-one]	140
Cn1cc(-n2cc(-c3ccc(F)c(Cl)c3)c3c(=O)n(CC(=O)N4CC(C)(F)C4)ccc32)cn1 [Example 286, 3-(3-chloro-4-fluorophenyl)-5-(2-(3-fluoro-3-methylazetidin-1-yl)-2-oxoethyl)-1-(1-methyl-1H-pyrazol-4-yl)-1H-pyrrolo[3,2-c]pyridin-4(5H)-one]	130
CC1(F)CN(C(=O)Cn2ccc3c(c(-c4ccc(F)c(C(F)(F)F)c4)cn3C3CC3)c2=O)C1 [Example 287, 1-cyclopropyl-3-(4-fluoro-3-(trifluoromethyl)phenyl)-5-(2-(3-fluoro-3-methylazetidin-1-yl)-2-oxoethyl)-1H-pyrrolo[3,2-c]pyridin-4(5H)-one]	140
CC1(F)CN(C(=O)Cn2ccc3c(c(-c4ccc(Cl)c(Cl)c4)cn3C3CC3)c2=O)C1 [Example 288, 1-cyclopropyl-3-(3,4-dichlorophenyl)-5-(2-(3-fluoro-3-methylazetidin-1-yl)-2-oxoethyl)-1H-pyrrolo[3,2-c]pyridin-4(5H)one]	130
CC1(F)CN(C(=O)Cn2ccc3c(c(-c4cnc(Cl)c(Cl)c4)cn3C3CC3)c2=O)C1 [Example 289, 1-cyclopropyl-3-(5,6-dichloropyridin-3-yl)-5-(2-(3-fluoro-3-methylazetidin-1-yl)-2-oxoethyl)-1H-pyrrolo[3,2-c]pyridin-4(5H)-one]	120
